From PubChem BioAssay (NCI)
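Following 48 hours of exposure in 96-well plates, responses at five concentrations were used to interpolate endpoints linearly. Abbreviation: GI50, concentration required for 50% inhibition of growth. TGI marks complete inhibition of growth.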

Legend:
Test in all cases: NCI-60 cell line screen, 48 h
786-0 renal = tested on: 786-0 renal
A498 renal = tested on: A498 renal
A549 NSCLC = tested on: A549 NSCLC
ACHN renal = tested on: ACHN renal
BT-549 breast = tested on: BT-549 breast
CAKI-1 renal = tested on: CAKI-1 renal
CCRF-CEM leukemia = tested on: CCRF-CEM leukemia
COLO 205 colon = tested on: COLO 205 colon
DU-145 prostate = tested on: DU-145 prostate
EKVX NSCLC = tested on: EKVX NSCLC
HCC-2998 colon = tested on: HCC-2998 colon
HCT-116 colon = tested on: HCT-116 colon
HCT-15 colon = tested on: HCT-15 colon
HL-60(TB) leukemia = tested on: HL-60(TB) leukemia
HOP-62 NSCLC = tested on: HOP-62 NSCLC
HOP-92 NSCLC = tested on: HOP-92 NSCLC
HS 578T breast = tested on: HS 578T breast
HT29 colon = tested on: HT29 colon
IGROV1 ovarian = tested on: IGROV1 ovarian
K-562 leukemia = tested on: K-562 leukemia
KM12 colon = tested on: KM12 colon
LOX IMVI melanoma = tested on: LOX IMVI melanoma
M14 melanoma = tested on: M14 melanoma
MALME-3M melanoma = tested on: MALME-3M melanoma
MCF7 breast = tested on: MCF7 breast
MDA-MB-231 breast = tested on: MDA-MB-231 breast
MDA-MB-435 = tested on: MDA-MB-435
MDA-MB-468 breast = tested on: MDA-MB-468 breast
MOLT-4 leukemia = tested on: MOLT-4 leukemia
NCI-H226 lung = tested on: NCI-H226 lung
NCI-H23 lung = tested on: NCI-H23 lung
NCI-H460 lung = tested on: NCI-H460 lung
NCI-H522 lung = tested on: NCI-H522 lung
NCI/ADR-RES ovarian = tested on: NCI/ADR-RES ovarian
OVCAR-3 ovarian = tested on: OVCAR-3 ovarian
OVCAR-4 ovarian = tested on: OVCAR-4 ovarian
OVCAR-5 ovarian = tested on: OVCAR-5 ovarian
OVCAR-8 ovarian = tested on: OVCAR-8 ovarian
PC-3 prostate = tested on: PC-3 prostate
RPMI-8226 leukemia = tested on: RPMI-8226 leukemia
RXF 393 renal = tested on: RXF 393 renal
SF-268 CNS = tested on: SF-268 CNS
SF-295 CNS = tested on: SF-295 CNS
SF-539 CNS = tested on: SF-539 CNS
SK-MEL-2 melanoma = tested on: SK-MEL-2 melanoma
SK-MEL-28 melanoma = tested on: SK-MEL-28 melanoma
SK-MEL-5 melanoma = tested on: SK-MEL-5 melanoma
SK-OV-3 ovarian = tested on: SK-OV-3 ovarian
SN12C renal = tested on: SN12C renal
SNB-19 CNS = tested on: SNB-19 CNS
SNB-75 CNS = tested on: SNB-75 CNS
SW-620 colon = tested on: SW-620 colon
T-47D breast = tested on: T-47D breast
TK-10 renal = tested on: TK-10 renal
U251 CNS = tested on: U251 CNS
UACC-257 melanoma = tested on: UACC-257 melanoma
UACC-62 melanoma = tested on: UACC-62 melanoma
UO-31 renal = tested on: UO-31 renal

For CN(C)CCCNC(=O)c1cc(NC(=O)c2cc(NC(=O)c3ccc(C#Cc4ccccc4)cc3)cn2C)cn1C, the GI50 (786-0 renal) was 2.65 µM, the TGI (786-0 renal) was 4.9 µM and the GI50 (A498 renal) was 3 µM. For the same compound, the TGI (A498 renal) was 8.96 µM, the GI50 (A549 NSCLC) was 2.56 µM and the TGI (A549 NSCLC) was 5.38 µM. For the same compound, the GI50 (ACHN renal) was 2.74 µM, the TGI (ACHN renal) was 6 µM and the GI50 (BT-549 breast) was 1.79 µM. For the same compound, the TGI (BT-549 breast) was 3.94 µM, the GI50 (CAKI-1 renal) was 2.85 µM and the TGI (CAKI-1 renal) was 7.97 µM. For the same compound, the GI50 (CCRF-CEM leukemia) was 1.66 µM, the TGI (CCRF-CEM leukemia) was 6.46 µM and the GI50 (COLO 205 colon) was 3.17 µM. For the same compound, the TGI (COLO 205 colon) was 5.82 µM, the GI50 (DU-145 prostate) was 2.55 µM and the TGI (DU-145 prostate) was 5.18 µM. It also gave a GI50 (EKVX NSCLC) of 2.49 µM, a TGI (EKVX NSCLC) of 5.18 µM and a GI50 (HCC-2998 colon) of 2.34 µM. The TGI (HCC-2998 colon) was 4.42 µM, the GI50 (HCT-116 colon) was 2.1 µM and the TGI (HCT-116 colon) was 4.46 µM. For the same compound, the GI50 (HCT-15 colon) was 2.23 µM, the TGI (HCT-15 colon) was 4.48 µM and the GI50 (HL-60(TB) leukemia) was 2.62 µM. It also gave a TGI (HL-60(TB) leukemia) of 7.14 µM, a GI50 (HOP-62 NSCLC) of 2.85 µM and a TGI (HOP-62 NSCLC) of 5.42 µM. It also gave a GI50 (HOP-92 NSCLC) of 0.611 µM, a TGI (HOP-92 NSCLC) of 3.47 µM and a GI50 (HS 578T breast) of 3.7 µM. It also gave a TGI (HS 578T breast) of 10 µM, a GI50 (HT29 colon) of 2.56 µM and a TGI (HT29 colon) of 6.64 µM. The GI50 (IGROV1 ovarian) was 4.95 µM, the TGI (IGROV1 ovarian) was greater than 15.3 µM and the GI50 (K-562 leukemia) was 2.74 µM. It also gave a TGI (K-562 leukemia) of 7.99 µM, a GI50 (KM12 colon) of 2.93 µM and a TGI (KM12 colon) of 6.81 µM. It also gave a GI50 (LOX IMVI melanoma) of 2.24 µM, a TGI (LOX IMVI melanoma) of 4.31 µM and a GI50 (M14 melanoma) of 2.26 µM. It also gave a TGI (M14 melanoma) of 4.54 µM, a GI50 (MALME-3M melanoma) of 2.11 µM and a TGI (MALME-3M melanoma) of 4.22 µM. For the same compound, the GI50 (MCF7 breast) was 0.58 µM, the TGI (MCF7 breast) was 2.38 µM and the GI50 (MDA-MB-231 breast) was 2.84 µM. For the same compound, the TGI (MDA-MB-231 breast) was 5.03 µM, the GI50 (MDA-MB-435) was 2.21 µM and the TGI (MDA-MB-435) was 4.39 µM. For the same compound, the GI50 (MDA-MB-468 breast) was 2.34 µM, the TGI (MDA-MB-468 breast) was 4.43 µM and the GI50 (MOLT-4 leukemia) was 2.4 µM. It also gave a TGI (MOLT-4 leukemia) of 7.24 µM, a GI50 (NCI-H226 lung) of 2.28 µM and a TGI (NCI-H226 lung) of 4.79 µM. It also gave a GI50 (NCI-H23 lung) of 2.76 µM, a TGI (NCI-H23 lung) of 5.37 µM and a GI50 (NCI-H460 lung) of 2.76 µM. The TGI (NCI-H460 lung) was 6.04 µM, the GI50 (NCI-H522 lung) was 2.56 µM and the TGI (NCI-H522 lung) was 5.16 µM. It also gave a GI50 (NCI/ADR-RES ovarian) of 2.85 µM, a TGI (NCI/ADR-RES ovarian) of 7.02 µM and a GI50 (OVCAR-3 ovarian) of 1.83 µM. It also gave a TGI (OVCAR-3 ovarian) of 4.13 µM, a GI50 (OVCAR-4 ovarian) of 4.21 µM and a TGI (OVCAR-4 ovarian) greater than 15.3 µM. The GI50 (OVCAR-5 ovarian) was 3.17 µM, the TGI (OVCAR-5 ovarian) was 7.43 µM and the GI50 (OVCAR-8 ovarian) was 2.57 µM. For the same compound, the TGI (OVCAR-8 ovarian) was 6.63 µM, the GI50 (PC-3 prostate) was 2.4 µM and the TGI (PC-3 prostate) was 5.38 µM. It also gave a GI50 (RPMI-8226 leukemia) of 1.76 µM, a TGI (RPMI-8226 leukemia) of 5.89 µM and a GI50 (RXF 393 renal) of 1.61 µM. For the same compound, the TGI (RXF 393 renal) was 3.84 µM, the GI50 (SF-268 CNS) was 2.56 µM and the TGI (SF-268 CNS) was 5.65 µM. The GI50 (SF-295 CNS) was 2.53 µM, the TGI (SF-295 CNS) was 4.97 µM and the GI50 (SF-539 CNS) was 2.48 µM. It also gave a TGI (SF-539 CNS) of 4.7 µM, a GI50 (SK-MEL-2 melanoma) of 2.91 µM and a TGI (SK-MEL-2 melanoma) of 5.98 µM. The GI50 (SK-MEL-28 melanoma) was 2.4 µM, the TGI (SK-MEL-28 melanoma) was 4.47 µM and the GI50 (SK-MEL-5 melanoma) was 2.34 µM. For the same compound, the TGI (SK-MEL-5 melanoma) was 4.37 µM, the GI50 (SK-OV-3 ovarian) was 5.58 µM and the TGI (SK-OV-3 ovarian) was greater than 15.3 µM. The GI50 (SN12C renal) was 2.03 µM, the TGI (SN12C renal) was 4.09 µM and the GI50 (SNB-19 CNS) was 2.84 µM. For the same compound, the TGI (SNB-19 CNS) was 5.01 µM, the GI50 (SNB-75 CNS) was 2.48 µM and the TGI (SNB-75 CNS) was greater than 15.3 µM. It also gave a GI50 (SW-620 colon) of 2.87 µM, a TGI (SW-620 colon) of 6.02 µM and a GI50 (T-47D breast) of 2.07 µM. The TGI (T-47D breast) was 4.94 µM, the GI50 (TK-10 renal) was 3.33 µM and the TGI (TK-10 renal) was 9.03 µM. For the same compound, the GI50 (U251 CNS) was 2.45 µM, the TGI (U251 CNS) was 5.93 µM and the GI50 (UACC-257 melanoma) was 2.12 µM. It also gave a TGI (UACC-257 melanoma) of 4.77 µM, a GI50 (UACC-62 melanoma) of 1.93 µM and a TGI (UACC-62 melanoma) of 4.07 µM. It also gave a GI50 (UO-31 renal) of 3.08 µM and a TGI (UO-31 renal) of 12.2 µM.
